Reference: publication PMC7403980, “Anti-Inflammatory Effects of the Novel PIM Kinase Inhibitor KMU-470 in RAW 264.7 Cells through the TLR4-NF-κB-NLRP3 Pathway” (International Journal of Molecular Sciences, 2020)
pIC50: −log10 of the molar value.

How the values were obtained:
[1] = tested on: IL-1β mRNA; assay: LPS-induced IL-1β mRNA expression in RAW 264.7 cells (RT-PCR); assay type: cell-based, murine; conditions: LPS 50 ng/mL 6 h
Procedure: Total RNA was isolated, and used to measure the mRNA expression levels of IL-1b and β-actin by RT-PCR analysis. *** p < 0.001, ** p < 0.01. […] (A-C) Cells were treated with KMU-470 for 30 min and stimulated with LPS 50 ng/mL for 6 h. The levels of IL-1β, TNF-α, and IL-6 were determined using real time PCR. *** p < 0.001, *p < 0.05. (D) Cells were pre-treated with 0.1, 0.5, and 1 μM of KMU-470 for 30 min and treated with LPS 50 ng/mL for 6 h, respectively. […] (E) Cells were pre-treated with 0.1, 0.5, and 1 μM of KMU-470 for 30 min and treated with LPS 50 ng/mL for 6 h, respectively. […] Total RNA was isolated using TriZol reagent (Life Technologies; Gaithersburg, MD, USA) according to the manufacturer's protocol. Total RNA absorbance was quantified by using Nanodrop 1000 (Thermo Fisher Scientific, Waltham, MA, USA). […] Real time quantitative PCR was performed by using the SYBR green premix (Roche Diagnostics, Mannheim, Germany) on the LightCycler 480 PCR (system Roche Diagnostics, Mannheim, Germany). The following primer sequences were used: L32 (Housekeeping gene): forward [NT], reverse [NT]-1β; forward [NT], reverse [NT]-α; forward [NT], reverse [NT]-6; forward [NT], reverse [NT].

[2] = tested on: ERK; assay: LPS-induced phosphorylation of ERK in RAW 264.7 cells (Western blot); assay type: cell-based, murine; conditions: KMU-470 1 μM 24 h pre-treatment, LPS 50 ng/mL
Procedure: Figure 5 Effect of KMU-470 on LPS-induced phosphorylation of MAPKs/ IKKs/ NF-κB in RAW 264.7 cells. (A) Cells were pre-treated with 1μM of KMU-470 for 24 h and stimulated with LPS (50 ng/mL) at the indicated times. (C) Cells were pre-treated with 0.5 and 1μM of KMU-470 for 30 min prior to LPS treatment. Total proteins were isolated after 6 h exposure to LPS (50 ng/mL). The protein expression level of MAPKs, p-IKKα/β, and p-NF-κB were assessed using Western blot analyses. (B,D) The relative optical densities of MAPKs, p-IKKα/β, and p-NF-κB bands were analyzed by the Image-J program. *** p < 0.001.
RAW 264.7 cells were pre-treated with KMU-470 (0.5–1 μM/mL) for 24 h and stimulated with LPS (50 ng/mL) for 6 h. After stimulation, total cells were harvested, washed with PBS buffer, and then the total protein was extracted with a RIPA buffer (0.1 mM sodium orthovanadate, 137 mM NaCl, 15 mM EGTA, 0.1% Triton X-100, 25 mM MOPS, 15 mM MgCl2, 100 μM phenylmethylsulfonyl fluoride, and 20 μM leupeptin, adjusted to pH 7.2). […] Immunoreactive proteins were detected using the ELC Western blot detection system kit (Millipore). Signal intensity was measured using the Chemi Image documentation system (Fusion Fx7, VILBER LOUTMAT). Protein expression levels were quantified using the Image J program.

[3] = tested on: NLRP3; assay: LPS-induced NLRP3 protein expression in RAW 264.7 cells (Western blot); assay type: cell-based, murine; conditions: KMU-470 0.1, 0.5, 1 μM 30 min, LPS 50 ng/mL 6 h
Procedure: (§1) Figure 6 Inhibitory effect of KMU-470 on LPS-induced up-regulation of pro-inflammatory cytokines and activation of NLRP3 inflammasome in RAW 264.7 cells. (A–C) Cells were treated with KMU-470 for 30 min and stimulated with LPS 50 ng/mL for 6 h. The levels of IL-1β, TNF-α, and IL-6 were determined using real time PCR. *** p < 0.001, *p < 0.05. (D) Cells were pre-treated with 0.1, 0.5, and 1 μM of KMU-470 for 30 min and treated with LPS 50 ng/mL for 6 h, respectively. Whole cell lysates were isolated and used to measure the protein expression levels of pro-IL-1β and β-actin by Western blot analysis. (E) Cells were pre-treated with 0.1, 0.5, and 1 μM of KMU-470 for 30 min and treated with LPS 50 ng/mL for 6 h, respectively. Whole cell lysates were isolated and used to measure the protein expression levels of […], ASC, pro-caspase-1, pro-IL-1β, and β-actin by Western blot analysis.
RAW 264.7 cells were pre-treated with KMU-470 (0.5–1 μM/mL) for 24 h and stimulated with LPS (50 ng/mL) for 6 h. […] Immunoreactive proteins were detected using the ELC Western blot detection system kit (Millipore). Signal intensity was measured using the Chemi Image documentation system (Fusion Fx7, VILBER LOUTMAT). Protein expression levels were quantified using the Image J program.

[4] = tested on: TNF-α; assay: LPS-induced TNF-α mRNA in RAW 264.7 cells (real time PCR); assay type: cell-based, murine; conditions: KMU-470 30 min, LPS 50 ng/mL 6 h
Procedure: as §1
Total RNA was isolated using TriZol reagent (Life Technologies; Gaithersburg, MD, USA) according to the manufacturer’s protocol. Total RNA absorbance was quantified by using Nanodrop 1000 (Thermo Fisher Scientific, Waltham, MA, USA). […] Real time quantitative PCR was performed by using the SYBR green premix (Roche Diagnostics, Mannheim, Germany) on the LightCycler 480 PCR (system Roche Diagnostics, Mannheim, Germany). […]

[5] = target: T1, PIM-3 (Homo sapiens, UniProt Q86V86); assay: PIM kinase IMAP fluorescence polarization IC50 determination; assay type: biochemical; conditions: ATP 20 μM; average of two independent experiments; read-out: Inhibitory Activity IC50 PIM-3
T1 construct: purchased Millipore (Burlington, MA, USA)
Procedure: (§2) The recombinant PIM kinase, human 5-FAM-labelled Bad peptide substrate, and ATP were prepared in a reaction buffer containing 10 mM HEPES (pH 7.2), 10 mM MgCl2, 0.05% NaN3, 0.01% Triton X-100, and 2 mM DTT. […] Reagents were added to the plate as follows: 2.5 μL compound, 2.5 μL PIM kinase, 2.5 μL ATP, and 2.5 μL 5-FAM-labelled Bad peptide substrate (a final concentration of 100 nM). The final concentrations of ATP in the kinase reactions were 30 μM, 5 μM, and 20 μM for PIM1, PIM2, and PIM3, respectively. […] Kinase reactions were incubated at room temperature for 90 min, and then the reactions were stopped by the addition of 20 μL of IMAP binding reagent (solution containing 75% Buffer A: 25% Buffer B, and a 1 in 600 dilution of beads). After quenching, the plates were incubated at room temperature for 2 h, and then the fluorescence polarization measurements were carried out on an Infinity F200 (Tecan, Männedorf, Zürich, Switzerland). The percentage of inhibition was calculated for each compound concentration and the data were fitted to the equation of a 4-parameter logistic curve. IC50 values were obtained using GraphPad Prism (GraphPad Software, Inc., La Jolla, CA, USA).

[6] = target: T2, PIM-1 (Homo sapiens, UniProt P11309); assay: as above; assay type: biochemical; conditions: ATP 30 μM; average of two independent experiments; read-out: Inhibitory Activity IC50 PIM-1
T2 construct: purchased Life Technologies (Carlsbad, CA, USA)
T2 sequence (P11309 whole entry, species assumed): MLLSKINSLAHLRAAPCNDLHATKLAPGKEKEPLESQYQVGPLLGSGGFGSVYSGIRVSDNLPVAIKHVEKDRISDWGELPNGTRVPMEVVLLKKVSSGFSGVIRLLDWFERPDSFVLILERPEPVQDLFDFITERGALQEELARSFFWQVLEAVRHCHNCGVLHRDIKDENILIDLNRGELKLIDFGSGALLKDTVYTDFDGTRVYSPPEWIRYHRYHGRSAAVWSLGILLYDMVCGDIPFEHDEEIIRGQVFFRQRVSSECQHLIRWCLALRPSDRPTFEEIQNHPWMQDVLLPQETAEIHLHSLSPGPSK
Procedure: as §2

[7] = target: T3, PIM-2 (Homo sapiens, UniProt Q9P1W9); assay: as above; assay type: biochemical; conditions: ATP 5 μM; average of two independent experiments; read-out: Inhibitory Activity IC50 PIM-2
T3 construct: purchased Abcam (Cambridge, UK)
T3 sequence (Q9P1W9 whole entry, species assumed): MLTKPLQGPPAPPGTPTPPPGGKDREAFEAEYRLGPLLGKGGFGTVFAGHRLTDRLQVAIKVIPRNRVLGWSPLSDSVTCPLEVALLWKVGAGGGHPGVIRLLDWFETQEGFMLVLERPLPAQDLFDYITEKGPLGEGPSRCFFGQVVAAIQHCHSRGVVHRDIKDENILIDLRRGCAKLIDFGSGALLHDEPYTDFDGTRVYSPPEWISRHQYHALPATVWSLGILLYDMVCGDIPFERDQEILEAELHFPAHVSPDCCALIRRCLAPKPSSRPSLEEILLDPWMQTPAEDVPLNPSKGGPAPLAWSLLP
Procedure: as §2

For CN(C)CCNc1cncc(-c2ccc3c(c2)/C(=C/c2cnc[nH]2)C(=O)N3)n1 [KMU-470, (Z)-3-((1H-Imidazol-5-yl)methylene)-5-(6-((2-(dimethylamino)ethyl)amino)pyrazin-2-yl)indolin-2-one], the “LPS-induced up-regulation of IL-1β mRNA expression” value ([1]; 1 µM compound, pre-treatment 1 h, RT-PCR (Figure 2B)) was “significantly inhibited”, the “LPS-induced up-regulation of IL-1β (mRNA)” value ([1]; KMU-470 30 min, real time PCR (Figure 6A)) was “significantly decreased” and the “LPS-induced phosphorylation of ERK” value [2] was “significantly inhibited”. The “Expression of NLRP3 protein compared with LPS alone group” value [3] was “marked decrease”, the “LPS-induced up-regulation of TNF-α (mRNA)” value [4] was “significantly decreased” and the pIC50 [5] was 8.16. For the same compound, the pIC50 [6] was 8.25 and the pIC50 [7] was 6.66.
